Key:
[1] = Highest frequency of moderate liver toxicity observed during clinical trials, expressed as a percentage. [column '% BIOL' in source]; conditions: human
[2] = Highest frequency of acute liver toxicity observed during clinical trials, expressed as a percentage. [column '% AIGUE' in source]; conditions: human
[3] = Times to onset, minimal and maximal, observed in the indexed observations. [column 'DELAI' in source]; conditions: human
[4] = human, serum
[5] = human, serum; remark: listed apart in the source
[6] = human
[7] = human; remark: listed apart in the source
[8] = human; remark: listed apart in the source
[9] = human, serum, 4383 h
[10] = human; remark: listed apart in the source
[11] = human; remark: listed apart in the source
[12] = human; remark: listed apart in the source
[13] = human; remark: listed apart in the source
[14] = human; remark: listed apart in the source
[15] = human; remark: listed apart in the source
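Throughout, for Hepatotoxicity (association with vascular disease): count of indexed literature references reporting vascular liver injury in humans, e.g. peliosis hepatitis, hepatic veno-occlusive disease or Budd-Chiari syndrome.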
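Throughout, for Hepatotoxicity (benign tumour): value is a count of indexed literature references citing a benign tumour confirmed by histopathology.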
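Throughout, for Hepatotoxicity (choleostasis): human cholestatic liver injury, shown by histopathology or by peak ALT or AST elevation over alkaline phosphatase ratio below 2, value counts indexed literature reports.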
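Throughout, for Hepatotoxicity (chronic liver disease): chronic liver injury confirmed by histopathology or persistently raised serum aminotransferase activity beyond 6 months, value given as the count of indexed literature references.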
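Throughout, for Hepatotoxicity (cirrhosis): value is a count of indexed literature references reporting cirrhosis confirmed by histopathology.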
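Throughout, for Hepatotoxicity (cytolytic): human cytolytic liver injury, shown by histopathology or by a ratio above 5 of peak ALT or AST elevation to alkaline phosphatase elevation, value counts indexed references.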
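Throughout, for Hepatotoxicity (granulomatous hepatitis): value is a count of indexed literature references reporting granulomatous liver disease confirmed by histopathology.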
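Throughout, for Hepatotoxicity (malignant tumour): malignant tumour confirmed by histopathology, value gives the count of indexed literature references reporting it.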
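Throughout, for Hepatotoxicity (severe hepatitis): human clinical data: severe hepatitis, meaning potentially life-threatening liver failure or clinically observed cases, the value counts how many indexed literature references report it.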
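Throughout, for Hepatotoxicity (steatosis): steatosis confirmed by histopathology, value is the count of indexed references.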

Structure (SMILES)	Hepatotoxicity (moderate) ([1]; Liver) [%]	Hepatotoxicity (acute) ([2]; Liver) [%]	Hepatotoxicity (time to onset) [3]	Hepatotoxicity (moderate) [4]	Hepatotoxicity (acute) [5]	Hepatotoxicity (cytolytic) [6]	Hepatotoxicity (choleostasis) [7]	Hepatotoxicity (severe hepatitis) ([8]; Liver)	Hepatotoxicity (chronic liver disease) [9]	Hepatotoxicity (cirrhosis) [10]	Hepatotoxicity (granulomatous hepatitis) [11]	Hepatotoxicity (association with vascular disease) [12]	Hepatotoxicity (steatosis) [13]	Hepatotoxicity (malignant tumour) [14]	Hepatotoxicity (benign tumour) [15]	Hepatotoxicity (moderate) [1] [%]	Hepatotoxicity (acute) [2] [%]	Hepatotoxicity (severe hepatitis) [8]
C[C@H]1[C@H](NC(=O)/C(=N\OC(C)(C)C(=O)O)c2csc(N)n2)C(=O)N1S(=O)(=O)O [AZTREONAM]	60	0	4 days	104	1	1	0	0	0	0	0	0	0	0	0			
NCC(CC(=O)O)c1ccc(Cl)cc1 (stereo not given) [BACLOFEN]			3 weeks - 2 months	1	3	1	1		0	0	0	0	0	0	0	0	0	0
O=C(O)CCNC(=O)c1ccc(/N=N/c2ccc(O)c(C(=O)O)c2)cc1 [BALSALAZIDE]			8 days	0	1	0	1		0	0	0	0	0	0	0	0	0	0
CCOC(=O)C(C)(CC)Oc1ccc(Cc2ccc(Cl)cc2)cc1 (stereo not given) [BECLOBRATE]			4 months - 6.5 months	1	2	1	0		0	0	0	0	0	0	0	1	0	2
CCOC(=O)[C@H](CCc1ccccc1)N[C@H]1CCc2ccccc2N(CC(=O)O)C1=O [BENAZEPRIL]			14 months	0	2	1	0		0	0	0	0	0	0	0	0	0	1
CC(=O)Nc1ccc(OC(=O)c2ccccc2OC(C)=O)cc1 [BENORILATE]			3 weeks	0	2	2	0		0	0	0	0	0	0	0	0	0	1
NC(CO)C(=O)NNCc1ccc(O)c(O)c1O (stereo not given) [BENSERAZIDE]			< 3 months	0	1	0	0		0	0	0	0	0	0	0	0	3.3	0
O=C1CN=C(c2ccccc2)c2c(sc3c2CCCC3)N1 [BENTAZEPAM]			1 month - 6 months	1	2	2	0		3	1	0	0	0	0	0	0	0	0
CCc1oc2ccccc2c1C(=O)c1cc(I)c(O)c(I)c1 [BENZIODARONE]			1 month - 4 months	0	3	0	3		0	0	0	0	0	0	0	0	0	0
CC(C)COCC(CN(Cc1ccccc1)c1ccccc1)N1CCCC1 (stereo not given) [BEPRIDIL]			4 days - 20 days	3	1	1	0		0	0	0	0	1	0	0	2.8	0	0
CC(O)(CS(=O)(=O)c1ccc(F)cc1)C(=O)Nc1ccc(C#N)c(C(F)(F)F)c1 (stereo not given) [BICALUTAMIDE]			2 days	1	1	1	0		0	0	0	0	0	0	0	6	0	1

— ChEMBL document CHEMBL3137667, “[Drug-induced liver injury; fourteenth updated edition of the bibliographic database of liver injuries and related drugs]” (Gastroenterol Clin Biol, 2004)
